Experimental data from paper PMC7796460, “Relation of Metal-Binding Property and Selective Toxicity of 8-Hydroxyquinoline Derived Mannich Bases Targeting Multidrug Resistant Cancer Cells” (Cancers, 2021).
Marks after values point to notes of the source that are not given here.

Assays:
MES-SA cells = experiment: ROS determination with DCFDA, MES-SA; assay type: cell-based, human; conditions: 2 h
Procedure, shortened: (§1)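 Cells loaded with 10 µM DCFDA (3 × 10^6 cells/mL, 37 °C, 30 min), washed, then plated at 2 × 10^4 cells/well in PBS. After basal reading, compounds (6.25–50 µM) added and fluorescence followed every 10 min to 2 h, also with 5 mM NAC; values as fold change versus basal and untreated cells.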

OVCAR-8 cells = experiment: MTT viability assay, OVCAR-8; assay type: cell-based; conditions: Homo sapiens, OVCAR-8, 72 h, MTT 72 h
Text: (§2) MDCK II canine kidney cells, A431 epidermoid carcinoma cells, the human uterine sarcoma cell lines MES-SA and the doxorubicin selected MES-SA-Dx5 were obtained from ATCC (MDCK II: No. CRL-2936™, A431: No. CRL-1555™, MES-SA: No. CRL-1976™, MES-SA/Dx5: No. CRL-1977™). ABCB1 was expressed in A431 and MES-SA cells using lentiviral transduction. The human cervix carcinoma cell line KB-3-1 and the vinblastine selected KB-v1were kind gifts from Dr. Michael M. Gottesman, National Institutes of Health. The phenotype of the resistant cells was verified using cytotoxicity assays. MDCK-B1 and MDCK-MM were established by the Sleeping Beauty transposon-based gene delivery system. OVCAR-8 and NCI-ADRres cells (obtained from the Division of Cancer Treatment and Diagnosis (DCTD) Tumor Repository (National Cancer Institute, Frederick, MD, USA)) were cultivated in RPMI-1640 (Sigma Aldrich, Budapest, Hungary), and other cell lines were cultivated in Dulbecco’s Modified Eagle Medium (DMEM, Sigma Aldrich, Budapest, Hungary), supplemented with 10% fetal bovine serum, 5 mM glutamine, and 50 unit/mL penicillin and streptomycin (Life Technologies, Carlsbad, CA, USA). All cell lines were cultivated at 37 °C, 5% CO2.
(§3) MTT viability assays were performed as described earlier with minor modifications. Briefly, cells were seeded into 96-well tissue culture plates (Sarstedt, Newton, NC, USA/Orange, Braine-l’Alleud, Belgium) at a density of 5000 cells/well and allowed to attach overnight. Test compounds were added to achieve the required final concentration in a final volume of 100 µL per well. After an incubation period of 72 h, the supernatant was removed and fresh medium containing the MTT reagent (0.083 mg/mL) was added. Incubation with MTT at 37 °C was terminated after 1 h by removing the supernatant and lysing the cells with 100 µL DMSO per well. Viability of the cells was measured spectrophotometrically based on the absorbance values at 540 nm using either a Perkin Elmer Victor X3 or an EnSpire microplate reader. Data were background corrected by subtraction of the signal obtained from unstained cell lysates and normalized to untreated cells. Curves were fitted by Prism software (GraphPad Software Inc., San Diego, CA, USA) using the sigmoidal dose-response model (comparing variable and fixed slopes). […] Significance was calculated using unpaired t-tests; results are given as *: p ≤ 0.05, **: p ≤ 0.01, ***: p ≤ 0.001, ****: p ≤ 0.0001.

MDCK cells = experiment: MTT viability assay, MDCK; assay type: cell-based, canine; conditions: Canis lupus familiaris, 72 h, MTT 72 h
Text: as §2, §3

[1] = design: method as in PMID 21275772; conditions: T = 25 °C, I = 0.2 M (KCl), cited from earlier work; for pKa (additional): group named in the cell
A431-B1 cells = experiment: MTT viability assay, A431-B1; assay type: cell-based; conditions: for IC50: 72 h, MTT 72 h
Text: as §2, §3

MES-SA/Dx5 cells [2] = experiment: ROS determination with DCFDA, MES-SA/Dx5; assay type: cell-based, human; conditions: 2 h
Procedure, shortened: as §1

MES-SA/Dx5 cells [3] = experiment: MTT viability assay, MES-SA/Dx5; assay type: cell-based, human; conditions: for IC50: Homo sapiens, MES-SA/Dx5, Table S1, calculated as ligand equivalents, read-out: IC50 Dx5; for IC50 / SR: absence of TQ; for Effect of co-administration of CuCl2 on toxicity: MDR MES-SA/Dx5, increasing concentrations of CuCl2, MTT 72 h (Figure 2I-L); for Selective toxicity in the presence of 50 µM copper(II): MES-SA vs. MES-SA/Dx5, 50 µM copper(II); for MDR-selective toxicity with excess iron ions: MES-SA vs. MES-SA/Dx5, co-administered FeCl3; for Effect of co-incubation with iron(III) on cytotoxicity: MES-SA/Dx5, increasing concentrations of FeCl3, MTT 72 h (Figure 2A-D); for SR: Table S1, IC50 Pgp negative divided by Pgp positive cells; for SR_TQ: Table S1, presence of 1 µM TQ
Procedure, shortened: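 After overnight attachment (5000 cells/well), compounds were incubated 72 h before a 1 h MTT step at 0.083 mg/mL. DMSO-solubilized product was measured at 540 nm.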

MDCK-B1 cells = experiment: MTT viability assay, MDCK-B1 (wild-type Pgp); assay type: cell-based, canine; conditions: for IC50: Canis lupus familiaris, 72 h, MTT 72 h
Text: as §2, §3

[4] = 6.25 µM, presence of 5 mM NAC (brackets)
[5] = 12.5 µM, presence of 5 mM NAC (brackets)
[6] = 25 µM, presence of 5 mM NAC (brackets)
[7] = 50 µM, presence of 5 mM NAC (brackets)
[8] = presence of 1 µM Tariquidar (values in brackets)
[9] = MES-SA/Dx5, 6.25 µM, presence of 5 mM NAC (brackets)
[10] = MES-SA/Dx5, 12.5 µM, presence of 5 mM NAC (brackets)
[11] = MES-SA/Dx5, 25 µM, presence of 5 mM NAC (brackets)
[12] = MES-SA/Dx5, 50 µM, presence of 5 mM NAC (brackets)
[13] = IC50 MES-SA vs. MES-SA/Dx5, absence of Tariquidar
[14] = IC50 MES-SA vs. MES-SA/Dx5, presence of 1 µM Tariquidar (brackets)
[15] = Table 2, value in brackets (Tariquidar as in Table 1)
[16] = Table 2, value outside brackets
[17] = IC50 MDCK vs. MDCK-B1, absence of Tariquidar
[18] = IC50 MDCK vs. MDCK-B1, presence of 1 µM Tariquidar (brackets)

Oc1c(CN2CCCCC2)ccc2cccnc12 [Compound Q-3, 7-(piperidin-1-ylmethyl)quinolin-8-ol]
Fold change in fluorescence (DCFDA) (MES-SA cells; 6.25 µM): 1.288± 0.24
Fold change in fluorescence (DCFDA) (MES-SA cells; [4]): 1.097± 0.11
Fold change in fluorescence (DCFDA) (MES-SA cells; 12.5 µM): 1.372± 0.22
Fold change in fluorescence (DCFDA) (MES-SA cells; [5]): 1.080± 0.27
Fold change in fluorescence (DCFDA) (MES-SA cells; 25 µM): 1.464± 0.39
Fold change in fluorescence (DCFDA) (MES-SA cells; [6]): 1.119± 0.24
Fold change in fluorescence (DCFDA) (MES-SA cells; 50 µM): 1.753± 0.37
Fold change in fluorescence (DCFDA) (MES-SA cells; [7]): 1.054± 0.25
IC50 (OVCAR-8 cells; absence of Tariquidar): 3.15 ± 0.36 µM
IC50 (OVCAR-8 cells; [8]): 3.72 µM
IC50 (MDCK cells; absence of Tariquidar): 7.61 ± 3.06 µM
IC50 (MDCK cells; [8]): 10.2 µM
pKa (NquinoliniumH+) [1]: 2.69 ^a
pKa (OH) [1]: 6.99 ^a
pKa (additional) [1]: >11.5 ^a
IC50 (A431-B1 cells; absence of Tariquidar): 1.14 ± 0.16 µM
IC50 (A431-B1 cells; [8]): 5.58 µM
SR A431-B1 (A431-B1 cells; IC50 A431 vs. A431-B1, absence of Tariquidar): 3.96
SR A431-B1 (A431-B1 cells; IC50 A431 vs. A431-B1, presence of 1 µM Tariquidar (brackets)): 0.73
Fold change in fluorescence (DCFDA) (MES-SA/Dx5 cells [2]; MES-SA/Dx5, 6.25 µM): 1.449± 0.46
Fold change in fluorescence (DCFDA) (MES-SA/Dx5 cells [2]; [9]): 0.954± 0.15
Fold change in fluorescence (DCFDA) (MES-SA/Dx5 cells [2]; MES-SA/Dx5, 12.5 µM): 1.400± 0.18
Fold change in fluorescence (DCFDA) (MES-SA/Dx5 cells [2]; [10]): 1.050± 0.09
Fold change in fluorescence (DCFDA) (MES-SA/Dx5 cells [2]; MES-SA/Dx5, 25 µM): 1.586± 0.22
Fold change in fluorescence (DCFDA) (MES-SA/Dx5 cells [2]; [11]): 1.201± 0.17
Fold change in fluorescence (DCFDA) (MES-SA/Dx5 cells [2]; MES-SA/Dx5, 50 µM): 1.786± 0.36
Fold change in fluorescence (DCFDA) (MES-SA/Dx5 cells [2]; [12]): 1.189± 0.18
IC50 (MES-SA/Dx5 cells [3]): 0.86 ± 0.26 µM
SR MES-SA/Dx5 (MES-SA/Dx5 cells [3]; [13]): 4.75
SR MES-SA/Dx5 (MES-SA/Dx5 cells [3]; [14]): 0.95
Effect of co-administration of CuCl2 on toxicity (MES-SA/Dx5 cells [3]): not further sensitized
Selective toxicity in the presence of 50 µM copper(II) (MES-SA/Dx5 cells [3]): completely abrogated
MDR-selective toxicity with excess iron ions (MES-SA/Dx5 cells [3]): significantly reduced
Effect of co-incubation with iron(III) on cytotoxicity (MES-SA/Dx5 cells [3]): selectively protected MES-SA/Dx5 cells
SR MES-SA/Dx5 (Table 2) (MES-SA/Dx5 cells [3]; [15]): 0.95
SR MES-SA/Dx5 (Table 2) (MES-SA/Dx5 cells [3]; [16]): 4.75
SR (MES-SA/Dx5 cells [3]): 4.75
SR_TQ (MES-SA/Dx5 cells [3]): 0.95
IC50 (MDCK-B1 cells; absence of Tariquidar): 3.22 ± 1.02 µM
IC50 (MDCK-B1 cells; [8]): 12.4 µM
SR MDCK-B1 (MDCK-B1 cells; [17]): 2.36
SR MDCK-B1 (MDCK-B1 cells; [18]): 0.82

Oc1c(CNCc2ccccc2F)cc(Cl)c2cccnc12 [Compound Q-4, 5-chloro-7-((2-fluorobenzylamino)methyl)quinolin-8-ol]
Fold change in fluorescence (DCFDA) (MES-SA cells; 6.25 µM): 1.207± 0.20
Fold change in fluorescence (DCFDA) (MES-SA cells; [4]): 1.030± 0.16
Fold change in fluorescence (DCFDA) (MES-SA cells; 12.5 µM): 1.190± 0.14
Fold change in fluorescence (DCFDA) (MES-SA cells; [5]): 1.033± 0.21
Fold change in fluorescence (DCFDA) (MES-SA cells; 25 µM): 1.187± 0.29
Fold change in fluorescence (DCFDA) (MES-SA cells; [6]): 0.985± 0.12
Fold change in fluorescence (DCFDA) (MES-SA cells; 50 µM): 1.151± 0.19
Fold change in fluorescence (DCFDA) (MES-SA cells; [7]): 1.040± 0.17
IC50 (OVCAR-8 cells; absence of Tariquidar): 1.08 ± 0.1 µM
IC50 (OVCAR-8 cells; [8]): 1.09 µM
IC50 (MDCK cells; absence of Tariquidar): 4.55 ± 1.53 µM
IC50 (MDCK cells; [8]): 5.92 µM
pKa (NquinoliniumH+) [1]: < 2 ^a
pKa (OH) [1]: 5.16 ^a
pKa (additional) [1]: 8.54 ^a (NbenzylamineH2^+)
IC50 (A431-B1 cells; absence of Tariquidar): 2.57 ± 0.56 µM
IC50 (A431-B1 cells; [8]): 7.95 µM
Fold change in fluorescence (DCFDA) (MES-SA/Dx5 cells [2]; MES-SA/Dx5, 6.25 µM): 1.238± 0.28
Fold change in fluorescence (DCFDA) (MES-SA/Dx5 cells [2]; [9]): 1.191± 0.07
Fold change in fluorescence (DCFDA) (MES-SA/Dx5 cells [2]; MES-SA/Dx5, 12.5 µM): 1.396± 0.35
Fold change in fluorescence (DCFDA) (MES-SA/Dx5 cells [2]; [10]): 1.337± 0.26
Fold change in fluorescence (DCFDA) (MES-SA/Dx5 cells [2]; MES-SA/Dx5, 25 µM): 1.340± 0.26
Fold change in fluorescence (DCFDA) (MES-SA/Dx5 cells [2]; [11]): 1.320± 0.31
Fold change in fluorescence (DCFDA) (MES-SA/Dx5 cells [2]; MES-SA/Dx5, 50 µM): 1.286± 0.30
Fold change in fluorescence (DCFDA) (MES-SA/Dx5 cells [2]; [12]): 1.283± 0.20
IC50 (MES-SA/Dx5 cells [3]): 0.2 ± 0.06 µM
SR MES-SA/Dx5 (MES-SA/Dx5 cells [3]; [13]): 13.68
SR MES-SA/Dx5 (MES-SA/Dx5 cells [3]; [14]): 0.68
Effect of co-administration of CuCl2 on toxicity (MES-SA/Dx5 cells [3]): not further sensitized
Selective toxicity in the presence of 50 µM copper(II) (MES-SA/Dx5 cells [3]): completely abrogated
MDR-selective toxicity with excess iron ions (MES-SA/Dx5 cells [3]): significantly reduced
Effect of co-incubation with iron(III) on cytotoxicity (MES-SA/Dx5 cells [3]): selectively protected MES-SA/Dx5 cells
SR MES-SA/Dx5 (Table 2) (MES-SA/Dx5 cells [3]; [15]): 0.68
SR MES-SA/Dx5 (Table 2) (MES-SA/Dx5 cells [3]; [16]): 13.68
SR (MES-SA/Dx5 cells [3]): 13.68
SR_TQ (MES-SA/Dx5 cells [3]): 0.68
IC50 (MDCK-B1 cells; absence of Tariquidar): 0.89 ± 0.35 µM
IC50 (MDCK-B1 cells; [8]): 6.95 µM
SR MDCK-B1 (MDCK-B1 cells; [17]): 5.13
SR MDCK-B1 (MDCK-B1 cells; [18]): 0.85
